Experimental data reported in the supplement of paper PMC10307832.

Key:
Assay in all cases: relative viability (nuclei count vs DMSO), 5 days (fraction); higher = more cells survive
[1] = test system: NCI-H596
Summary of the method: (§1)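 Lung cancer cell lines, seeded in 1536-well plates, were treated the following day by pin tool with a single drug or with five library-drug doses (not always all listed) in √10 steps on top of a fixed anchor-drug dose. Cells were fixed and nuclei stained in one step after 5 days, and nuclei were counted. Relative viability is the nuclei count for treated wells divided by that for vehicle wells, reported as medians of duplicate plates.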

[2] = test system: EKVX
Summary of the method: as §1

[3] = test system: NCI-H2009
Summary of the method: as §1

[4] = test system: LC-2-ad
Summary of the method: as §1

[5] = test system: NCI-H1395
Summary of the method: as §1

[6] = test system: NCI-H1355
Summary of the method: as §1

[7] = test system: NCI-H647
Summary of the method: as §1

[8] = test system: NCI-H2405
Summary of the method: as §1

[9] = test system: SK-MES-1
Summary of the method: as §1

[10] = test system: NCI-H1792
Summary of the method: as §1

[11] = test system: HARA
Summary of the method: as §1

[12] = test system: SK-LU-1
Summary of the method: as §1

[13] = test system: HCC-366
Summary of the method: as §1

[14] = test system: NCI-H2228
Summary of the method: as §1

[15] = test system: NCI-H2087
Summary of the method: as §1

[16] = test system: HCC-827
Summary of the method: as §1

[17] = test system: LOU-NH91
Summary of the method: as §1

[18] = test system: BEN
Summary of the method: as §1

[19] = test system: NCI-H1437
Summary of the method: as §1

[20] = test system: NCI-H661
Summary of the method: as §1

[21] = test system: NCI-H1734
Summary of the method: as §1

Question: Which results are given for CC1(C)CCC(c2ccc(Cl)cc2)=C(CN2CCN(c3ccc(C(=O)NS(=O)(=O)c4ccc(N[C@H](CCN5CCOCC5)CSc5ccccc5)c(S(=O)(=O)C(F)(F)F)c4)cc3)CC2)C1 [Navitoclax] + C[C@]1(O)C[C@@H](c2nc(-c3ccc4ccc(-c5ccccc5)nc4c3)c3c(N)nccn32)C1 [Linsitinib] (partner 1 µM)?
Answer: relative viability ([1]; first compound 0.005 µM): 1.09; relative viability ([1]; first compound 0.01581 µM): 1.09; relative viability ([1]; first compound 0.05 µM): 0.722; relative viability ([1]; first compound 0.1581 µM): 1; relative viability ([1]; first compound 0.5 µM): 1.02; relative viability ([2]; first compound 0.005 µM): 0.953; relative viability ([2]; first compound 0.01581 µM): 1.28; relative viability ([2]; first compound 0.05 µM): 0.954; relative viability ([2]; first compound 0.1581 µM): 0.953; relative viability ([2]; first compound 0.5 µM): 1.01; relative viability ([3]; first compound 0.005 µM): 1.08; relative viability ([3]; first compound 0.01581 µM): 1.25; relative viability ([3]; first compound 0.05 µM): 1.16; relative viability ([3]; first compound 0.1581 µM): 1.18; relative viability ([3]; first compound 0.5 µM): 1.31; relative viability ([4]; first compound 0.005 µM): 0.853; relative viability ([4]; first compound 0.01581 µM): 0.904; relative viability ([4]; first compound 0.05 µM): 0.787; relative viability ([4]; first compound 0.1581 µM): 0.789; relative viability ([4]; first compound 0.5 µM): 0.796; relative viability ([5]; first compound 0.005 µM): 0.938; relative viability ([5]; first compound 0.01581 µM): 1.34; relative viability ([5]; first compound 0.05 µM): 1.08; relative viability ([5]; first compound 0.1581 µM): 1.13; relative viability ([5]; first compound 0.5 µM): 1.27; relative viability ([6]; first compound 0.005 µM): 0.831; relative viability ([6]; first compound 0.01581 µM): 0.892; relative viability ([6]; first compound 0.05 µM): 0.817; relative viability ([6]; first compound 0.1581 µM): 0.775; relative viability ([6]; first compound 0.5 µM): 0.834; relative viability ([7]; first compound 0.005 µM): 1.05; relative viability ([7]; first compound 0.01581 µM): 1.12; relative viability ([7]; first compound 0.05 µM): 1.23; relative viability ([7]; first compound 0.1581 µM): 1.17; relative viability ([7]; first compound 0.5 µM): 1.05; relative viability ([8]; first compound 0.005 µM): 0.899; relative viability ([8]; first compound 0.01581 µM): 1.02; relative viability ([8]; first compound 0.05 µM): 0.922; relative viability ([8]; first compound 0.1581 µM): 0.937; relative viability ([8]; first compound 0.5 µM): 0.88; relative viability ([9]; first compound 0.005 µM): 1.03; relative viability ([9]; first compound 0.01581 µM): 1.19; relative viability ([9]; first compound 0.05 µM): 1.19; relative viability ([9]; first compound 0.1581 µM): 1.02; relative viability ([9]; first compound 0.5 µM): 1.1; relative viability ([10]; first compound 0.005 µM): 0.554; relative viability ([10]; first compound 0.01581 µM): 0.629; relative viability ([10]; first compound 0.05 µM): 0.414; relative viability ([10]; first compound 0.1581 µM): 0.539; relative viability ([10]; first compound 0.5 µM): 0.609; relative viability ([11]; first compound 0.005 µM): 0.833; relative viability ([11]; first compound 0.01581 µM): 1.16; relative viability ([11]; first compound 0.05 µM): 0.749; relative viability ([11]; first compound 0.1581 µM): 0.918; relative viability ([11]; first compound 0.5 µM): 0.861; relative viability ([12]; first compound 0.005 µM): 1.07; relative viability ([12]; first compound 0.01581 µM): 1.25; relative viability ([12]; first compound 0.05 µM): 1.2; relative viability ([12]; first compound 0.1581 µM): 1.08; relative viability ([12]; first compound 0.5 µM): 0.773; relative viability ([13]; first compound 0.005 µM): 0.672; relative viability ([13]; first compound 0.01581 µM): 0.728; relative viability ([13]; first compound 0.05 µM): 0.155; relative viability ([13]; first compound 0.1581 µM): 0.615; relative viability ([13]; first compound 0.5 µM): 0.449; relative viability ([14]; first compound 0.005 µM): 0.877; relative viability ([14]; first compound 0.01581 µM): 0.81; relative viability ([14]; first compound 0.05 µM): 0.623; relative viability ([14]; first compound 0.1581 µM): 0.626; relative viability ([14]; first compound 0.5 µM): 0.639; relative viability ([15]; first compound 0.005 µM): 0.919; relative viability ([15]; first compound 0.01581 µM): 0.898; relative viability ([15]; first compound 0.05 µM): 0.956; relative viability ([15]; first compound 0.1581 µM): 1.14; relative viability ([15]; first compound 0.5 µM): 0.871; relative viability ([16]; first compound 0.005 µM): 0.91; relative viability ([16]; first compound 0.01581 µM): 0.989; relative viability ([16]; first compound 0.05 µM): 0.864; relative viability ([16]; first compound 0.1581 µM): 0.926; relative viability ([16]; first compound 0.5 µM): 0.928; relative viability ([17]; first compound 0.005 µM): 0.974; relative viability ([17]; first compound 0.01581 µM): 0.999; relative viability ([17]; first compound 0.05 µM): 0.933; relative viability ([17]; first compound 0.1581 µM): 1.02; relative viability ([17]; first compound 0.5 µM): 0.842; relative viability ([18]; first compound 0.005 µM): 0.841; relative viability ([18]; first compound 0.01581 µM): 0.921; relative viability ([18]; first compound 0.05 µM): 0.958; relative viability ([18]; first compound 0.1581 µM): 0.911; relative viability ([18]; first compound 0.5 µM): 0.634; relative viability ([19]; first compound 0.005 µM): 0.952; relative viability ([19]; first compound 0.01581 µM): 1.08; relative viability ([19]; first compound 0.05 µM): 1.02; relative viability ([19]; first compound 0.1581 µM): 1.09; relative viability ([19]; first compound 0.5 µM): 0.95; relative viability ([20]; first compound 0.005 µM): 0.524; relative viability ([20]; first compound 0.01581 µM): 0.601; relative viability ([20]; first compound 0.05 µM): 0.575; relative viability ([20]; first compound 0.1581 µM): 0.552; relative viability ([20]; first compound 0.5 µM): 0.5; relative viability ([21]; first compound 0.005 µM): 0.834; relative viability ([21]; first compound 0.01581 µM): 0.948; relative viability ([21]; first compound 0.1581 µM): 0.797; relative viability ([21]; first compound 0.5 µM): 0.857

Question: Which results are given for Oc1nc(-c2ccc(C(F)(F)F)cc2)nc2c1CSCC2 [XAV939] + C[C@]1(O)C[C@@H](c2nc(-c3ccc4ccc(-c5ccccc5)nc4c3)c3c(N)nccn32)C1 [Linsitinib] (partner 1 µM)?
Answer: relative viability ([1]; first compound 0.08 µM): 1.09; relative viability ([1]; first compound 0.253 µM): 1.02; relative viability ([1]; first compound 0.8 µM): 1.03; relative viability ([1]; first compound 2.53 µM): 0.924; relative viability ([2]; first compound 0.08 µM): 1.07; relative viability ([2]; first compound 0.253 µM): 0.776; relative viability ([2]; first compound 0.8 µM): 0.831; relative viability ([2]; first compound 2.53 µM): 0.623; relative viability ([3]; first compound 0.08 µM): 1.19; relative viability ([3]; first compound 0.253 µM): 0.904; relative viability ([3]; first compound 0.8 µM): 1.17; relative viability ([3]; first compound 2.53 µM): 1.09; relative viability ([4]; first compound 0.08 µM): 0.873; relative viability ([4]; first compound 0.253 µM): 0.797; relative viability ([4]; first compound 0.8 µM): 0.819; relative viability ([4]; first compound 2.53 µM): 0.73; relative viability ([5]; first compound 0.08 µM): 1.09; relative viability ([5]; first compound 0.253 µM): 1.04; relative viability ([5]; first compound 0.8 µM): 1.11; relative viability ([5]; first compound 2.53 µM): 0.974; relative viability ([6]; first compound 0.08 µM): 0.867; relative viability ([6]; first compound 0.253 µM): 0.783; relative viability ([6]; first compound 0.8 µM): 0.82; relative viability ([6]; first compound 2.53 µM): 0.666; relative viability ([7]; first compound 0.08 µM): 1.13; relative viability ([7]; first compound 0.253 µM): 0.864; relative viability ([7]; first compound 0.8 µM): 1.06; relative viability ([7]; first compound 2.53 µM): 1.02; relative viability ([8]; first compound 0.08 µM): 1.01; relative viability ([8]; first compound 0.253 µM): 0.863; relative viability ([8]; first compound 0.8 µM): 0.96; relative viability ([8]; first compound 2.53 µM): 0.801; relative viability ([9]; first compound 0.08 µM): 1.1; relative viability ([9]; first compound 0.253 µM): 0.896; relative viability ([9]; first compound 0.8 µM): 1.03; relative viability ([9]; first compound 2.53 µM): 0.965; relative viability ([10]; first compound 0.08 µM): 0.672; relative viability ([10]; first compound 0.253 µM): 0.537; relative viability ([10]; first compound 0.8 µM): 0.557; relative viability ([10]; first compound 2.53 µM): 0.453; relative viability ([11]; first compound 0.08 µM): 1.25; relative viability ([11]; first compound 0.253 µM): 0.414; relative viability ([11]; first compound 0.8 µM): 0.779; relative viability ([11]; first compound 2.53 µM): 0.956; relative viability ([12]; first compound 0.08 µM): 1.2; relative viability ([12]; first compound 0.253 µM): 1.03; relative viability ([12]; first compound 0.8 µM): 1.02; relative viability ([12]; first compound 2.53 µM): 1.07; relative viability ([13]; first compound 0.08 µM): 0.626; relative viability ([13]; first compound 0.253 µM): 0.5; relative viability ([13]; first compound 0.8 µM): 0.605; relative viability ([13]; first compound 2.53 µM): 0.596; relative viability ([14]; first compound 0.08 µM): 0.684; relative viability ([14]; first compound 0.253 µM): 0.683; relative viability ([14]; first compound 0.8 µM): 0.81; relative viability ([14]; first compound 2.53 µM): 0.551; relative viability ([15]; first compound 0.08 µM): 1.14; relative viability ([15]; first compound 0.253 µM): 0.936; relative viability ([15]; first compound 0.8 µM): 0.939; relative viability ([15]; first compound 2.53 µM): 0.672; relative viability ([16]; first compound 0.08 µM): 0.995; relative viability ([16]; first compound 0.253 µM): 0.91; relative viability ([16]; first compound 0.8 µM): 0.952; relative viability ([16]; first compound 2.53 µM): 0.942; relative viability ([17]; first compound 0.08 µM): 0.903; relative viability ([17]; first compound 0.253 µM): 0.842; relative viability ([17]; first compound 0.8 µM): 0.996; relative viability ([17]; first compound 2.53 µM): 0.911; relative viability ([18]; first compound 0.08 µM): 1.17; relative viability ([18]; first compound 0.253 µM): 0.894; relative viability ([18]; first compound 0.8 µM): 0.934; relative viability ([19]; first compound 0.08 µM): 1.21; relative viability ([19]; first compound 0.253 µM): 0.878; relative viability ([19]; first compound 0.8 µM): 0.873; relative viability ([19]; first compound 2.53 µM): 0.477; relative viability ([20]; first compound 0.08 µM): 0.653; relative viability ([20]; first compound 0.253 µM): 0.568; relative viability ([20]; first compound 0.8 µM): 0.649; relative viability ([20]; first compound 2.53 µM): 0.35; relative viability ([21]; first compound 0.08 µM): 0.841; relative viability ([21]; first compound 0.253 µM): 0.853; relative viability ([21]; first compound 0.8 µM): 0.961; relative viability ([21]; first compound 2.53 µM): 0.709
